{
  "source": "paper PMC13052075",
  "about": "“Synthesis of 1,2,3,4‐Tetrahydroisoquinoline‐3‐Carboxylic Acid‐Embedded Decapeptides: In Silico Studies and In Vitro Evaluation Against Breast Cancer” (ChemistryOpen, 2025)",
  "system": "MCF‐7 human breast cancer cell line",
  "experiment": "cells",
  "settings": "for IC50: 24 h",
  "protocol": "Using GraphPad Prism software, the IC50 values were determined (Figure 8). After conducting the MTT assay, the absorbance data was entered into the software to generate dose–response curves. The nonlinear regression analysis function, specifically log(inhibitor) verus normalized response was employed to calculate the IC50 values for each compound. This method allowed for accurate determination of the concentration required to inhibit 50% of cell viability.\nThe MTT assay (3‐[4,5‐dimethylthiazol‐2‐yl]‐2,5‐diphenyltetrazolium bromide) was employed to evaluate the anticancer potential of the synthesized compounds against the MCF‐7 human breast cancer cell line. MCF‐7 cells were seeded into a 96‐well plate at a density of 1 × 10^4 cells per well and allowed to adhere for 24 h. Subsequently, the cells were treated with the test compounds at concentrations of 0.1, 1, 2, 5, and 10 µM, prepared in plain Dulbecco's Modified Eagle Medium (DMEM) media. After 24 h of incubation, MTT solution (100 µg per well; Sigma‐Aldrich) was added, and the plates were incubated for an additional 3–4 h to allow the formation of formazan crystals. The resulting formazan was dissolved in DMSO, and absorbance was measured at 570 nm using a microplate reader.",
  "note": "Non-standard residues stand in square brackets, D forms with d. Residues, ends and D or L forms follow the SMILES beside them. Tic = O=C(O)[C@@H]1Cc2ccccc2CN1",
  "data": [
    {"smiles": "CC(C)C[C@H](NC(=O)[C@H](Cc1c[nH]c2ccccc12)NC(=O)[C@H](CO)NC(=O)[C@H](CCC(=O)O)NC(=O)[C@@H]1Cc2ccccc2CN1C(=O)[C@H](CCCCN)NC(=O)[C@H](Cc1c[nH]cn1)NC(=O)[C@H](CCCNC(=N)N)NC(=O)CNC(=O)[C@@H](N)Cc1c[nH]cn1)C(=O)O", "note": "[DEC‐1] (H-HGRHK[Tic]ESWL-OH)", "values": [
      {"measurement": "IC50", "result": 3.38, "unit": "µM"}
    ]},
    {"smiles": "CC/C(=C(\\c1ccccc1)c1ccc(OCCN(C)C)cc1)c1ccccc1", "note": "[Tamoxifen, tamoxifen]", "values": [
      {"measurement": "inhibition at 0.1 µM", "setting": "Homo sapiens, MCF7, 24 h, read-out: % Inhibition 0.1 µM", "result": "14.1 ± 5.41", "unit": "%"},
      {"measurement": "inhibition at 1 µM", "setting": "Homo sapiens, MCF7, 24 h, read-out: % Inhibition 1 µM", "result": "29.6 ± 10.4", "unit": "%"},
      {"measurement": "inhibition at 2 µM", "setting": "Homo sapiens, MCF7, 24 h, read-out: % Inhibition 2 µM", "result": "38.2 ± 2.76", "unit": "%"},
      {"measurement": "inhibition at 5 µM", "setting": "Homo sapiens, MCF7, 24 h, read-out: % Inhibition 5 µM", "result": "57.2 ± 5.99", "unit": "%"},
      {"measurement": "inhibition at 10 µM", "setting": "Homo sapiens, MCF7, 24 h, read-out: % Inhibition 10 µM", "result": "92.21 ± 0.73", "unit": "%"}
    ]},
    {"smiles": "CC(C)C[C@H](NC(=O)[C@H](Cc1c[nH]c2ccccc12)NC(=O)[C@H](CO)NC(=O)[C@H](CCC(=O)O)NC(=O)[C@@H]1Cc2ccccc2CN1C(=O)[C@H](Cc1c[nH]cn1)NC(=O)[C@H](CCCNC(=N)N)NC(=O)[C@H](CCCCN)NC(=O)[C@H](CS)NC(=O)[C@@H](N)CCCNC(=N)N)C(=O)O", "note": "[DEC‐2] (H-RCKRH[Tic]ESWL-OH)", "values": [
      {"measurement": "IC50", "result": 6.1, "unit": "µM"}
    ]},
    {"smiles": "CC(C)C[C@H](NC(=O)[C@H](Cc1c[nH]c2ccccc12)NC(=O)[C@H](CO)NC(=O)[C@H](CCC(=O)O)NC(=O)[C@@H]1Cc2ccccc2CN1C(=O)[C@H](Cc1c[nH]cn1)NC(=O)[C@H](CCCCN)NC(=O)[C@H](CCCNC(=N)N)NC(=O)[C@H](CS)NC(=O)[C@@H](N)CCCCN)C(=O)O", "note": "[DEC‐3] (H-KCRKH[Tic]ESWL-OH)", "values": [
      {"measurement": "IC50", "result": 4.49, "unit": "µM"}
    ]}
  ]
}
